# From US7910751B2, “Heterocyclidene acetamide derivative” (Mochida Pharmaceutical Co., Ltd., priority 2005, dated 2011)
# Target: T1, human TRPV1 (Homo sapiens, UniProt Q8NER1)
# T1 construct: expressed in transfected cells; host or cells: CHO-K1
# Assay: Measurement of capsaicin-induced Ca influx in human TRPV1 transformed CHO cell line using FDSS-6000
# Format: cell-based
# Settings: concentration at which the capsaicin concentration-reaction curve is shifted two times to the right, human TRPV1 transformed CHO cells
# T1 sequence (Q8NER1 whole entry): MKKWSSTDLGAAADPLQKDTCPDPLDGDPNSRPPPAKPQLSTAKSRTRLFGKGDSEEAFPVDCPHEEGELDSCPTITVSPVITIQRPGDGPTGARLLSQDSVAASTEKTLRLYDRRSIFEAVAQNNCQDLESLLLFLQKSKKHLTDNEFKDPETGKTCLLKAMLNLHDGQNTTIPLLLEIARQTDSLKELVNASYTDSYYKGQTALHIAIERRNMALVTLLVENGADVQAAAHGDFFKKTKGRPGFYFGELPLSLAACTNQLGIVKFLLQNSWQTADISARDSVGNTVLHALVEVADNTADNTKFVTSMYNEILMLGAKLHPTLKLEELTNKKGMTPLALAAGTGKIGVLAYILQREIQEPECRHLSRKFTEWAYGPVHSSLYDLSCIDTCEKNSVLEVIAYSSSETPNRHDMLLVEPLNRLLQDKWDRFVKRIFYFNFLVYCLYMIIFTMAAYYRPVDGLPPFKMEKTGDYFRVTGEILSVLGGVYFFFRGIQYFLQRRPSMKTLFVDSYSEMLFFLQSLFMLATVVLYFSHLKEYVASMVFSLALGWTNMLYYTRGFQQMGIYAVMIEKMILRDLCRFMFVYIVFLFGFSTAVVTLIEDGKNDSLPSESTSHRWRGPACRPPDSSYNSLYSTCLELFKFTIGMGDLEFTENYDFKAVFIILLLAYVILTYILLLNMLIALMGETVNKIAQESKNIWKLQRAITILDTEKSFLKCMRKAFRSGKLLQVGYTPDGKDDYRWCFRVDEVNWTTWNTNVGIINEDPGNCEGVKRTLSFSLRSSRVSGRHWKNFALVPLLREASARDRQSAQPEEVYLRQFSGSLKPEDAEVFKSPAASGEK
row,SMILES,A2 VALUE
1,"O=C(/C=C1\CCN(C(=O)C2(O)CC2)c2cc(C(F)(F)F)ccc21)Nc1cccc2c1CC(O)CC2 (stereo not shown) [Example 112, (E)-2-(1-(1-hydroxycyclopropanecarbonyl)-7-trifluoromethyl-2,3-dihydroquinolin-4(1H)-ylidene)-N-(7-hydroxy-5,6,7,8-tetrahydronaphthalen-1-yl)acetamide]",B (compounds having an A2 value of 100 nM or more are represented by B)
2,"COCCN1CCCc2ccc(NC(=O)/C=C3\CCCOc4cc(C(F)(F)F)ccc43)cc21 [Example 130, (E)-2-(8-trifluoromethyl-3,4-dihydrobenzo[b]oxepin-5(2H)-ylidene)-N-(1-(2-methoxyethyl)-1,2,3,4-tetrahydroquinolin-7-yl)acetamide]",A (compounds of the present invention having an A2 value of less than 100 nM are represented by A)
3,"O=C(/C=C1\CCCOc2cc(C(F)(F)F)ccc21)Nc1cccc2c1CC(O)C(=O)N2 (stereo not shown) [Example 67, (E)-2-(8-trifluoromethyl-3,4-dihydrobenzo[b]oxepin-5(2H)-ylidene)-N-(3-hydroxy-2-oxo-1,2,3,4-tetrahydroquinolin-5-yl)acetamide]",A (compounds of the present invention having an A2 value of less than 100 nM are represented by A)
4,"COc1ccc2cccc(NC(=O)/C=C3\CCCOc4cc(C(F)(F)F)ccc43)c2c1 [Example 129, (E)-2-(8-trifluoromethyl-3,4-dihydrobenzo[b]oxepin-5(2H)-ylidene)-N-(7-methoxynaphthalen-1-yl)acetamide]",B (compounds having an A2 value of 100 nM or more are represented by B)
5,"O=C(/C=C1\CCCOc2cc(C(F)(F)F)ccc21)Nc1ccc2ccc(O)cc2c1 [Example 128, (E)-2-(8-trifluoromethyl-3,4-dihydrobenzo[b]oxepin-5(2H)-ylidene)-N-(7-hydroxynaphthalen-2-yl)acetamide]",A (compounds of the present invention having an A2 value of less than 100 nM are represented by A)
6,"O=C(/C=C1\CCCOc2cc(C(F)(F)F)ccc21)Nc1cccc(-c2cnc3ccccc3n2)c1 [Example 28, (E)-2-(8-trifluoromethyl-3,4-dihydrobenzo[b]oxepin-5(2H)-ylidene)-N-(3-(quinoxalin-2-yl)phenyl)acetamide]",B (compounds having an A2 value of 100 nM or more are represented by B)
7,"O=C(/C=C1\CCOc2cc(C(F)(F)F)ccc21)Nc1cccc2c1CC(O)CC2 (stereo not shown) [Example 71, (E)-2-(7-trifluoromethyl-chroman-4-ylidene)-N-(7-hydroxy-5,6,7,8-tetrahydronaphthalen-1-yl)acetamide]",A (compounds of the present invention having an A2 value of less than 100 nM are represented by A)
8,"COc1cc(NC(=O)/C=C2\CCCOc3cc(C(F)(F)F)ccc32)cc(C(F)(F)F)c1 [Example 135, (E)-2-(8-trifluoromethyl-3,4-dihydrobenzo[b]oxepin-5(2H)-ylidene)-N-(3-methoxy-5-(trifluoromethyl)phenyl)acetamide]",A (compounds of the present invention having an A2 value of less than 100 nM are represented by A)
9,"O=C(/C=C1\CCCOc2cc(C(F)(F)F)ccc21)Nc1nc(-c2ccccc2)cs1 [Example 47, (E)-2-(8-trifluoromethyl-3,4-dihydrobenzo[b]oxepin-5(2H)-ylidene)-N-(4-phenylthiazolo-2-yl)acetamide]",B (compounds having an A2 value of 100 nM or more are represented by B)
10,"O=C(/C=C1\CCCOc2cc(C(F)(F)F)ccc21)Nc1ccc2ccn(CCO)c2c1 [Example 151, (E)-2-(8-trifluoromethyl-3,4-dihydrobenzo[b]oxepin-5(2H)-ylidene)-N-(1-(2-hydroxyethyl)indol-6-yl)acetamide]",A (compounds of the present invention having an A2 value of less than 100 nM are represented by A)
11,"O=C(/C=C1\CCN(C(=O)C2CCCC2)c2cc(C(F)(F)F)ccc21)Nc1ccc2cccnc2c1 [Example 73, (E)-2-(1-cyclopentanecarbonyl-7-trifluoromethyl-2,3-dihydroquinolin-4(1H)-ylidene)-N-(quinolin-7-yl)acetamide]",A (compounds of the present invention having an A2 value of less than 100 nM are represented by A)
12,"CC(CNC(=O)/C=C1\CCCOc2cc(C(F)(F)F)ccc21)c1cccc2c1CC(O)CC2 (stereo not shown) [Example 227, (E)-2-(8-trifluoromethyl-3,4-dihydrobenzo[b]oxepin-5(2H)-ylidene)-N-(2-(7-hydroxy-5,6,7,8-tetrahydronaphthalen-1-yl)propyl)acetamide]",A (compounds of the present invention having an A2 value of less than 100 nM are represented by A)
13,"O=C(/C=C1\CCOc2cc(C(F)(F)F)c(F)cc21)Nc1cccc2c1CC(O)CN2 (stereo not shown) [Example 215, (E)-2-(6-fluoro-7-trifluoromethyl-chroman-4-ylidene)-N-(3-hydroxy-1,2,3,4-tetrahydroquinolin-5-yl)acetamide]",A (compounds of the present invention having an A2 value of less than 100 nM are represented by A)
14,"Cc1nc2cc(NC(=O)/C=C3\CCCOc4cc(C(F)(F)F)ccc43)ccc2s1 [Example 19, (E)-2-(8-trifluoromethyl-3,4-dihydrobenzo[b]oxepin-5(2H)-ylidene)-N-(2-methyl-1,3-benzothiazolo-5-yl)acetamide]",A (compounds of the present invention having an A2 value of less than 100 nM are represented by A)
15,"CC(C)(C)c1ccc(NC(=O)/C=C2\CCCOc3cc(C(F)(F)F)ccc32)cc1 [Example 14, (E)-N-(4-tert-butylphenyl)-2-(8-trifluoromethyl-3,4-dihydrobenzo[b]oxepin-5(2H)-ylidene)acetamide]",A (compounds of the present invention having an A2 value of less than 100 nM are represented by A)
16,"O=C(/C=C1\CCCOc2cc(C(F)(F)F)ccc21)NC1CCCc2cccnc2C1 (stereo not shown) [Example 45, (E)-2-(8-trifluoromethyl-3,4-dihydrobenzo[b]oxepin-5(2H)-ylidene)-N-(6,7,8,9-tetrahydro-5H-cyclohepta[b]pyridin-8-yl)acetamide]",B (compounds having an A2 value of 100 nM or more are represented by B)
17,"CN1CCC/C(=C\C(=O)Nc2cccc3ccc(O)cc23)c2ccc(C(F)(F)F)cc21 [Example 198, (E)-2-(1-methyl-8-trifluoromethyl-1,2,3,4-tetrahydro-5H-benzo[b]azepin-5-ylidene)-N-(7-hydroxynaphthalen-1-yl)acetamide]",A (compounds of the present invention having an A2 value of less than 100 nM are represented by A)
18,"O=C(/C=C1\CCCOc2cc(C(F)(F)F)ccc21)Nc1ncc(CO)cc1Cl [Example 224, (E)-2-(8-trifluoromethyl-3,4-dihydrobenzo[b]oxepin-5(2H)-ylidene)-N-(3-chloro-5-hydroxymethyl-2-pyridyl)acetamide]",B (compounds having an A2 value of 100 nM or more are represented by B)
19,"O=C(/C=C1\CCCOc2cc(C(F)(F)F)ccc21)Nc1ccc2sc(CO)nc2c1 [Example 59, (E)-2-(8-trifluoromethyl-3,4-dihydrobenzo[b]oxepin-5(2H)-ylidene)-N-(2-hydroxymethyl-1,3-benzothiazolo-5-yl)acetamide]",A (compounds of the present invention having an A2 value of less than 100 nM are represented by A)
